Test system: IL-13 induced pSTAT6 in BEAS-2B human cell line
Assay: Inhibition of IL-13 induced pSTAT6 in BEAS
Type: cell-based
Conditions: IL-13 induced pSTAT6, BEAS-2B cells, ELISA
Method: BEAS-2B human cell line was seeded (100.000 cells/well) and incubated for 48 h at 37° C., 5% CO2, 95% humidity. Compounds were added and incubated 30 min followed by IL-13 as trigger. After 30 min incubation, cells were lysed and pSTAT6 determined by Fastscan phospho-stat6 (Tyr641) sandwich ELISA kit (cell signaling). Inhibitors were tested at 11 consecutive […] dilutions starting from 10 μM (10 μM-40 pM) in duplicate. Calculation of IC50 data, curves and QC analysis were made using Excel tools and GraphPadPrism software. QC criteria parameters: Z′≥0.35, Hill Slope range 0.5 to 5, S:B>2.

## Cc1nn(-c2cc3c(cc2OC(F)F)NCCO3)c2cc(-c3cnn4cccnc34)ncc12 [Example 1, 6-(difluoromethoxy)-7-(3-methyl-6-(pyrazolo[1,5-a]pyrimidin-3-yl)-1H-pyrazolo[4,3-c]pyridin-1-yl)-3,4-dihydro-2H-benzo[b][1,4]oxazine]
  IC50: 5.01 to 50.1 nM

## COc1cc2c(cc1-n1nc(C)c3cnc(-c4cnn5cccnc45)cc31)CN(S(C)(=O)=O)C2 [Example 2, 1-(6-methoxy-2-(methylsulfonyl)isoindolin-5-yl)-3-methyl-6-(pyrazolo[1,5-a]pyrimidin-3-yl)-1H-pyrazolo[4,3-c]pyridine]
  IC50: 5.01 to 50.1 nM

## COc1cc2c(cc1-n1nc(C)c3cnc(-c4cnn5cccnc45)cc31)CCCC(=O)N2 [Example 3, 8-methoxy-7-(3-methyl-6-(pyrazolo[1,5-a]pyrimidin-3-yl)-1H-pyrazolo[4,3-c]pyridin-1-yl)-1,3,4,5-tetrahydro-2H-benzo[b]azepin-2-one]
  IC50: 5.01 to 50.1 nM

## COc1cc2c(cc1-n1nc(C)c3cnc(-c4cnn5cccnc45)cc31)CCC(=O)N2 [Example 4, 7-methoxy-6-(3-methyl-6-(pyrazolo[1,5-a]pyrimidin-3-yl)-1H-pyrazolo[4,3-c]pyridin-1-yl)-3,4-dihydroquinolin-2(1H)-one]
  IC50: 5.01 to 50.1 nM

## COc1cc2c(cc1-n1nc(C)c3cnc(-c4cnn5cccnc45)cc31)C(=O)CCN2 [Example 5, 7-methoxy-6-(3-methyl-6-(pyrazolo[1,5-a]pyrimidin-3-yl)-1H-pyrazolo[4,3-c]pyridin-1-yl)-2,3-dihydroquinolin-4(1H)-one]
  IC50: 5.01 to 50.1 nM

## COc1cc2c(cc1-n1nc(C)c3cnc(-c4cnn5cccnc45)cc31)SCCN2 [Example 6, 6-methoxy-7-(3-methyl-6-(pyrazolo[1,5-a]pyrimidin-3-yl)-1H-pyrazolo[4,3-c]pyridin-1-yl)-3,4-dihydro-2H-benzo[b][1,4]thiazine]
  IC50: < 5.01 nM

## COc1cc2c(cc1-n1nc(C)c3cnc(-c4cnn5cccnc45)cc31)SCC(=O)N2 [Example 7, 6-methoxy-7-(3-methyl-6-(pyrazolo[1,5-a]pyrimidin-3-yl)-1H-pyrazolo[4,3-c]pyridin-1-yl)-2H-benzo[b][1,4]thiazin-3(4H)-one]
  IC50: 5.01 to 50.1 nM

## COc1cc2c(cc1-n1nc(C)c3cnc(-c4cnn5cccnc45)cc31)S(=O)(=O)CCN2 [Example 8, 6-methoxy-7-(3-methyl-6-(pyrazolo[1,5-a]pyrimidin-3-yl)-1H-pyrazolo[4,3-c]pyridin-1-yl)-3,4-dihydro-2H-benzo[b][1,4]thiazine 1,1-dioxide]
  IC50: 5.01 to 50.1 nM

## COc1cc2c(cc1-n1nc(C)c3cnc(-c4cnn5cccnc45)cc31)OCCCN2 [Example 9, 7-methoxy-8-(3-methyl-6-(pyrazolo[1,5-a]pyrimidin-3-yl)-1H-pyrazolo[4,3-c]pyridin-1-yl)-2,3,4,5-tetrahydrobenzo[b][1,4]oxazepine]
  IC50: 5.01 to 50.1 nM

## COc1cc2c(cc1-n1nc(C)c3cnc(-c4cnn5cccnc45)cc31)CC(=O)N2 [Example 10, 6-methoxy-5-(3-methyl-6-(pyrazolo[1,5-a]pyrimidin-3-yl)-1H-pyrazolo[4,3-c]pyridin-1-yl)indolin-2-one]
  IC50: 5.01 to 50.1 nM

## COc1cc2c(cc1-n1nc(C)c3cnc(-c4cnn5cccnc45)cc31)OC(F)(F)C(=O)N2 [Example 11, 2,2-difluoro-6-methoxy-7-(3-methyl-6-(pyrazolo[1,5-a]pyrimidin-3-yl)-1H-pyrazolo[4,3-c]pyridin-1-yl)-2H-benzo[b][1,4]oxazin-3(4H)-one]
  IC50: 5.01 to 50.1 nM

## COc1cc2c(cc1-n1nc(C)c3cnc(-c4cnn5cccnc45)cc31)CN(C)C(=O)N2 [Example 12, 7-methoxy-3-methyl-6-(3-methyl-6-(pyrazolo[1,5-a]pyrimidin-3-yl)-1H-pyrazolo[4,3-c]pyridin-1-yl)-3,4-dihydroquinazolin-2(1H)-one]
  IC50: 50.1 to 501 nM

## COc1cc2c(cc1-n1nc(C(=O)NC3CN(CC4CCOCC4)C3)c3cnc(-c4cnn5cccnc45)cc31)OCCN2 [Example 13]
  IC50: 5.01 to 50.1 nM

## COc1cc2c(cc1-n1nc(C(=O)NCCCN3CCC(F)(F)CC3)c3cnc(-c4cnn5cccnc45)cc31)OCCN2 [Example 14, N-(3-(4,4-difluoropiperidin-1-yl)propyl)-1-(6-methoxy-3,4-dihydro-2H-benzo[b][1,4]oxazin-7-yl)-6-(pyrazolo[1,5-a]pyrimidin-3-yl)-1H-pyrazolo[4,3-c]pyridine-3-carboxamide]
  IC50: 5.01 to 50.1 nM

## COc1cc2c(cc1-n1nc(C(=O)NCCN3CCC4(CCC(=O)O4)CC3)c3cnc(-c4cnn5cccnc45)cc31)OCCN2 [Example 15, 1-(6-methoxy-3,4-dihydro-2H-benzo[b][1,4]oxazin-7-yl)-N-(2-(2-oxo-1-oxa-8-azaspiro[4.5]decan-8-yl)ethyl)-6-(pyrazolo[1,5-a]pyrimidin-3-yl)-1H-pyrazolo[4,3-c]pyridine-3-carboxamide]
  IC50: < 5.01 nM

## COc1cc2c(cc1-n1nc(C(=O)NCCCN(C)C)c3cnc(-c4cnn5cccnc45)cc31)SCCN2 [Example 16, N-(3-(dimethylamino)propyl)-1-(6-methoxy-3,4-dihydro-2H-benzo[b][1,4]thiazin-7-yl)-6-(pyrazolo[1,5-a]pyrimidin-3-yl)-1H-pyrazolo[4,3-c]pyridine-3-carboxamide]
  IC50: < 5.01 nM

## COc1cc2c(cc1-n1nc(C(=O)NC3CN(C)C3)c3cnc(-c4cnn5cccnc45)cc31)SCCN2 [Example 17, 1-(6-methoxy-3,4-dihydro-2H-benzo[b][1,4]thiazin-7-yl)-N-(1-methylazetidin-3-yl)-6-(pyrazolo[1,5-a]pyrimidin-3-yl)-1H-pyrazolo[4,3-c]pyridine-3-carboxamide]
  IC50: 5.01 to 50.1 nM

## COc1cc2c(cc1-n1nc(C(=O)NC[C@@H]3CN(C)CCO3)c3cnc(-c4cnn5cccnc45)cc31)SCCN2 [Example 18, (R)-1-(6-methoxy-3,4-dihydro-2H-benzo[b][1,4]thiazin-7-yl)-N-((4-methylmorpholin-2-yl)methyl)-6-(pyrazolo[1,5-a]pyrimidin-3-yl)-1H-pyrazolo[4,3-c]pyridine-3-carboxamide]
  IC50: 5.01 to 50.1 nM

## COc1cc2c(cc1-n1nc(NC(=O)OCCCN3CCOC(=O)C3)c3cnc(-c4cnn5cccnc45)cc31)SCCN2 [Example 19, 3-(2-oxomorpholino)propyl (1-(6-methoxy-3,4-dihydro-2H-benzo[b][1,4]thiazin-7-yl)-6-(pyrazolo[1,5-a]pyrimidin-3-yl)-1H-pyrazolo[4,3-c]pyridin-3-yl)carbamate]
  IC50: 5.01 to 50.1 nM

## COc1cc2c(cc1-n1nc(NC(=O)OCCN(C)C3CCOC3=O)c3cnc(-c4cnn5cccnc45)cc31)SCCN2 (stereo not shown) [Example 20, 2-(methyl(2-oxotetrahydrofuran-3-yl)amino)ethyl (1-(6-methoxy-3,4-dihydro-2H-benzo[b][1,4]thiazin-7-yl)-6-(pyrazolo[1,5-a]pyrimidin-3-yl)-1H-pyrazolo[4,3-c]pyridin-3-yl)carbamate]
  IC50: 5.01 to 50.1 nM

## COc1cc2c(cc1-n1nc(C(=O)NC[C@@H]3CN(C)CCO3)c3cnc(-c4cnn5cccnc45)cc31)SCC(=O)N2 [Example 21, (R)-1-(6-methoxy-3-oxo-3,4-dihydro-2H-benzo[b][1,4]thiazin-7-yl)-N-((4-methylmorpholin-2-yl)methyl)-6-(pyrazolo[1,5-a]pyrimidin-3-yl)-1H-pyrazolo[4,3-c]pyridine-3-carboxamide]
  IC50: 5.01 to 50.1 nM

## COc1cc2c(cc1-n1nc(C(=O)NC[C@H]3CN(C)CCO3)c3cnc(-c4cnn5cccnc45)cc31)SCC(=O)N2 [Example 22, (S)-1-(6-methoxy-3-oxo-3,4-dihydro-2H-benzo[b][1,4]thiazin-7-yl)-N-((4-methylmorpholin-2-yl)methyl)-6-(pyrazolo[1,5-a]pyrimidin-3-yl)-1H-pyrazolo[4,3-c]pyridine-3-carboxamide]
  IC50: 5.01 to 50.1 nM

## COc1cc2c(cc1-n1nc(C(=O)NCCCN(C)C)c3cnc(-c4cnn5cccnc45)cc31)SCC(=O)N2 [Example 23, N-(3-(dimethylamino)propyl)-1-(6-methoxy-3-oxo-3,4-dihydro-2H-benzo[b][1,4]thiazin-7-yl)-6-(pyrazolo[1,5-a]pyrimidin-3-yl)-1H-pyrazolo[4,3-c]pyridine-3-carboxamide]
  IC50: 5.01 to 50.1 nM

## COc1cc2c(cc1-n1nc(C(=O)NCCCN(C)C)c3cnc(-c4cnn5cccnc45)cc31)CCC(=O)N2 [Example 24, N-(3-(dimethylamino)propyl)-1-(7-methoxy-2-oxo-1,2,3,4-tetrahydroquinolin-6-yl)-6-(pyrazolo[1,5-a]pyrimidin-3-yl)-1H-pyrazolo[4,3-c]pyridine-3-carboxamide]
  IC50: 50.1 to 501 nM

## COc1cc2c(cc1-n1nc(C(=O)NCCCN(C)C)c3cnc(-c4cnn5cccnc45)cc31)CCCN2 [Example 25, N-(3-(dimethylamino)propyl)-1-(7-methoxy-1,2,3,4-tetrahydroquinolin-6-yl)-6-(pyrazolo[1,5-a]pyrimidin-3-yl)-1H-pyrazolo[4,3-c]pyridine-3-carboxamide]
  IC50: 5.01 to 50.1 nM

## CNc1nn(-c2cc3c(cc2OC)NC(=O)CC3)c2cc(-c3cnn4cccnc34)ncc12 [Example 26, 7-methoxy-6-(3-(methylamino)-6-(pyrazolo[1,5-a]pyrimidin-3-yl)-1H-pyrazolo[4,3-c]pyridin-1-yl)-3,4-dihydroquinolin-2(1H)-one]
  IC50: 5.01 to 50.1 nM

## COc1cc2c(cc1-n1nc(NC(=O)OCCN(C)C)c3cnc(-c4cnn5cccnc45)cc31)CCC(=O)N2 [Example 27, 2-(dimethylamino)ethyl (1-(7-methoxy-2-oxo-1,2,3,4-tetrahydroquinolin-6-yl)-6-(pyrazolo[1,5-a]pyrimidin-3-yl)-1H-pyrazolo[4,3-c]pyridin-3-yl)carbamate]
  IC50: 5.01 to 50.1 nM

## COc1cc2c(cc1-n1nc(NC(=O)OCCN(C)C)c3cnc(-c4cnn5cccnc45)cc31)SCCN2 [Example 28, 2-(dimethylamino)ethyl (1-(6-methoxy-3,4-dihydro-2H-benzo[b][1,4]thiazin-7-yl)-6-(pyrazolo[1,5-a]pyrimidin-3-yl)-1H-pyrazolo[4,3-c]pyridin-3-yl)carbamate]
  IC50: < 5.01 nM
